Experiments:
[1] = Phase solubility of sertraline with cyclodextrins; assay type: physicochemical; conditions: about 25° C., pH not adjusted, higher cyclodextrin concentration (above about 0.08 M)
Experimental: At lower molar concentrations of cyclodextrin (less than about 0.08 M), the phase solubility curve for each cyclodextrin is very similar.
The phase solubility curves for sertraline with SAE-CD, HP-β-CD and γ-CD were determined according to procedures well known in the art (Higuchi et al. in Phase Solubility Techniques, in Advances in Analytical Chemistry and Instrumentation (Ed. C. N. Reilly, John Wiley & Sons Inc., Vol. 4 (1965), pg. 117-212) the relevant disclosure of which is hereby incorporated by reference). The results are depicted in FIG. 1.

[2] = Solubility of sertraline HCl versus pH in SBE-β-CD solutions; assay type: physicochemical; conditions: 0, 10% or 20% sulfobutylether-β-cyclodextrin (DS=6.7), buffers pH 1, 3, 5, 7
Experimental: Aqueous 0.01M buffers were prepared at pH values of 1 (HCl), 3 and 5 (citric acid/sodium citrate), and 7 (monobasic potassium phosphate) and used to prepare solutions containing 0, 10% or 20% sulfobutylether-β-cyclodextrin (DS=6.7). Excess sertraline HCl was added to each of the solutions and allowed to mix for three days. The solutions were centrifuged and the supernatants analyzed for sertraline content and final pH.

Compound	Phase solubility of sertraline with cyclodextrin [1]	Effect of solution pH upon solubility [2]
2-hydroxypropyl-β-cyclodextrin [HP-β-CD]	outperform the γ-CD	
CN[C@H]1CC[C@@H](c2ccc(Cl)c(Cl)c2)c2ccccc21 [sertraline, (1S-cis)-4-(3,4-dichlorophenyl)-1,2,3,4-tetrahydro-N-methyl-1-naphthalenamine]		independent of the pH over the range evaluated
Sulfobutyl Ether-β-Cyclodextrin [SBE7-β-CD]	outperform the γ-CD	

Reference: US20050250738A1, “Taste-masked formulations containing sertraline and sulfoalkyl ether cyclodextrin” (priority 2004, published 2005)
